Data published in patent US11685726B2, “Pharmaceutical compositions of 6-(2-(2H-tetrazol-5-yl)ethyl)-6-fluorodecahydroisoquinoline-3-carboxylic acid and ester derivatives thereof” (Sea Pharmaceuticals LLC, priority 2020, dated 2023).

Experiments:
[1] = system: 6 Hz psychomotor seizure model in mice; test: 6 Hz psychomotor seizure model in mice; type: in vivo, mouse; conditions: DMC
Excerpt: Adult male Carworth Farms (CF-1) mice (25-35 g) or young male Sprague-Dawley (SD) rats (100-150 g) were obtained from Charles River Laboratories Inc (Wilmington Mass. USA). CF1 mice were typically used for the 6 Hz psychomotor seizure model (6 Hz model described in the section below) but could also be used for the Maximal electroshock seizure (MES) model if performed in mice (Maximal electroshock seizure model described in the section below). SD rats were typically used for MES model but could also be used for 6 Hz psychomotor model if performed in rats. Animals were allowed free access to food and water, except during testing periods. After delivery from supplier lab to the in vivo pharmacology testing lab, animals were allowed sufficient time to acclimate to housing conditions prior to testing. Animals were housed in plastic cages in rooms with controlled humidity, ventilation, and lighting (12 hours lights on and 12 hours darkness). The animals were housed and fed in a manner consistent with the recommendations in the “Guide for Care and Use of Laboratory Animals” (National Research Council), and in accordance with guidelines set by an Institutional Animal Care and Use Committee (IACUC). Animal experiments were conducted in a manner consistent with Animal Research: Reporting of In Vivo Experiments (ARRIVE) guidelines (UK) and were approved by an IACUC. Test compounds or respective vehicle (placebo) were administered using an optimal fluid volume-to-body fluid ratio. Solutions or suspensions of test compounds, reference compounds or vehicles were administered to mice or rats in a volume of 0.01 mL/g body weight (mice) or 0.004 mL/g body weight (rats) by subcutaneous (s.c.) injection, intraperitoneal (i.p.) injection or by oral gavage (p.o.) unless otherwise indicated. Reference drug Levetiracetam or vehicle was administered by intraperitoneal (i.p.) injection.
Mice are given a topical anesthetic on the cornea of each eye prior to placement of corneal electrodes. 6 Hz psychomotor seizures were induced in mice (usually 8 animals per group) using electrical stimulation via corneal electrodes (6 Hz, 0.2 millisecond rectangular pulse, 3 second duration at 22 mA using a Grass 48 stimulator instrument as described in Barton M E et al 2001. Epilepsy Res 47:217-227). Prior to placement of corneal electrodes for electrical stimulation 0.5% tetracaine in saline (Sigma) drops were applied to each eye. Seizures and behaviors that arise from the electrical stimulus in the 6 Hz model include a minor clonic seizure phase followed by stereotyped automatistic behaviors including stun, forelimb clonus, twitching of the vibrissae and Straub-tail. […] Animals not presenting any of these behaviors were considered “protected” from seizures. This serves as a screen for in vivo pharmacological activity of test articles or reference anti-epilepsy drugs and defines anti-seizure activity as shown in several publications [Barton M E et al. 2001. Epilepsy Res. 47:217-227; Barton M E et al. 2003 Epilepsy Res. 56:17-26; Brown W C et al. 1953. J Pharmacol Exp Ther 107:273-283. Metcalf C S et al. 2017a. Epilepsia 58:484-493.; Metcalf C S et al. 2017c. Epilepsia 58:239-246.
Unless otherwise indicated pretreatment times of mice or rats were typically 0.5 hours for respective vehicle, Compounds 1, 3, 4, 6 or other compounds administered by subcutaneous or intraperitoneal route (unless other times indicated). A pretreatment time of 1 hour was used for Compounds 3, 4, 6 or other compounds administered by oral route unless other times indicated. Test compounds or respective vehicles were tested in some cases at other pretreatment times as indicated. A median effective dose (ED50) and 95% confidence interval (CI) were calculated using a Prism (Graphpad software). […]

AMPA receptor = test: Whole cell patch-clamp recording of s-AMPA induced currents in pyramidal neurons of rat brain prefrontal cortex slices; type: cell-based; conditions: rat brain slice PFC pyramidal neurons; n=4 to 5 experiments per concentration; read-out: IC50 of inhibition of peak amplitude responses to 20 μM s-AMPA
Method: (§1) Additionally biological activity of compounds as antagonists of AMPA receptors or NMDA receptors (also called ionotropic glutamate-gated ion channels) were conducted using ex vivo functional electrophysiological assays of pyramidal neurons in slices of rat brain prefrontal cortex. Effects of test compounds cf. reference compounds were studied by whole cell patch-clamp electrophysiology recordings of s-AMPA-induced currents or NMDA-induced currents, respectively, using rat brain slice prefrontal cortex (layer V) pyramidal neurons.
Male Sprague Dawley rats were supplied by Charles River Laboratories (Wilmington, Mass. USA) and were housed 4 per cage within a temperature (20.5-23.5° C.) and humidity (30-80%) controlled environment on a 12 hour light/dark cycle with access to food (Teklad Global Soy Protein, Cat. No. T.2920X10, Envigo, Indianapolis, Ind., USA) and water ad libitum. At 4-6 weeks of age rats were terminally anaesthetized using isofluorane [(1-chloro-2,2,2-trifluoroethyl difluoromethyl ether) supplied by Baxter Healthcare Corp, Deerfield, Ill., USA], and decapitated. The brain was removed and 300 μm thick coronal prefrontal cortex (PFC) or sagittal hippocampal slices were sectioned using a Vibratome microtome. After brain removal, and throughout slicing, the tissue was submerged in ice cold […] cerebrospinal fluid (aCSF). Once slices were cut, they were transferred to a beaker containing aCSF and left at room temperature for a minimum of 1 hour before commencing electrophysiological recordings. After this period, individual slices were transferred to a recording chamber continuously perfused with aCSF at a rate of 4-6 mL/min before commencing experiment protocols. aCSF composition (in mM): NaCl, 127; KCl, 1.9; KH2PO4, 1.2; CaCl2), 2.4; MgCl2, 1.3; NaHCO3, 26; D-glucose, 10; in water equilibrated with 95% Oxygen gas-5% CO2 gas (reagent suppliers listed below). Experiments investigating NMDA currents had aCSF supplemented with 10 μM glycine (reagents suppliers listed below). All experiments were conducted following protocols with the approval of an Institutional Animal Care and Use Committee (IACUC).
Whole cell patch-clamp recordings were performed from Layer V prefrontal cortex pyramidal neurons at room temperature using the ‘visualized’ version of the patch-clamp technique. […]
(§2) All test compound experiments were carried out in the voltage-clamp recording configuration of the whole cell patch-clamp technique and all recordings performed at a holding potential of −60 mV. Recordings were monitored on a Dell personal computer (PC) running Axon pClamp software (Molecular Devices, Sunnyvale, Calif., USA) and digitized at 10 kHz. […]

NMDA receptor = test: Whole cell patch-clamp recording of NMDA induced currents in pyramidal neurons of rat brain prefrontal cortex slices; type: cell-based; conditions: 30 μM; rat brain slice PFC pyramidal neurons; n=4
Method: as §1
Male Sprague Dawley rats were supplied by Charles River Laboratories (Wilmington, Mass. USA) and were housed 4 per cage within a temperature (20.5-23.5° C.) and humidity (30-80%) controlled environment on a 12 hour light/dark cycle with access to food (Teklad Global Soy Protein, Cat. No. T.2920X10, Envigo, Indianapolis, Ind., USA) and water ad libitum. […]
as §2

CCOC(=O)[C@@H]1C[C@H]2C[C@@](F)(CCc3nnn[nH]3)CC[C@H]2CN1 [Compound 3, ethyl (3S,4aS,6S,8aR)-6-fluoro-6-[2-(1H-1,2,3,4-tetrazol-5-yl)ethyl]-decahydroisoquinoline-3-carboxylate]
6 Hz Test Results (# mice protected from seizure/# mice tested) ([1]; 13 mg/kg p.o., 1 hour): 5/8
6 Hz Test Results (# mice protected from seizure/# mice tested) ([1]; 13 mg/kg s.c., 0.5 hours): 8/8

CCC(CC)COC(=O)[C@@H]1C[C@H]2C[C@@](F)(CCc3nnn[nH]3)CC[C@H]2CN1 [Compound 4, 2-ethylbutyl (3S,4aS,6S,8aR)-6-fluoro-6-[2-(1H-1,2,3,4-tetrazol-5-yl)ethyl]-decahydroisoquinoline-3-carboxylate]
6 Hz Test Results (# mice protected from seizure/# mice tested) ([1]; 13 mg/kg p.o., 1 hour): 6/7
6 Hz Test Results (# mice protected from seizure/# mice tested) ([1]; 13 mg/kg s.c., 0.5 hours): 8/8

O=C(OC1CCCCC1)[C@@H]1C[C@H]2C[C@@](F)(CCc3nn[nH]n3)CC[C@H]2CN1 [Compound 6, cyclohexyl (3S,4aS,6S,8aR)-6-fluoro-6-[2-(1H-1,2,3,4-tetrazol-5-yl)ethyl]-decahydroisoquinoline-3-carboxylate]
6 Hz Test Results (# mice protected from seizure/# mice tested) ([1]; 13 mg/kg p.o., 1 hour): 8/8

O=C(O)[C@@H]1C[C@H]2C[C@@H](CCc3nn[nH]n3)CC[C@H]2CN1 [Tezampanel, reference compound]
IC50 (AMPA receptor): 481 nM
inhibition of peak amplitude responses to 50 μM NMDA induced currents (NMDA receptor): 40%+/−2%
